Experimental data reported in patent US7915050B2, “Regulatory genes for plant differentiation and growth, and use of the same” (National University Corporation Nagoya University, priority 2005, dated 2011).

How the values were obtained:
AtGID1a = target: T1, AtGID1a (Arabidopsis thaliana, UniProt Q9MAA7); experiment: Scatchard analysis of GA binding of AtGID1a; conditions: equilibrium conditions
T1 construct: made in house; host or cells: E. coli
T1 sequence (Q9MAA7 1-345): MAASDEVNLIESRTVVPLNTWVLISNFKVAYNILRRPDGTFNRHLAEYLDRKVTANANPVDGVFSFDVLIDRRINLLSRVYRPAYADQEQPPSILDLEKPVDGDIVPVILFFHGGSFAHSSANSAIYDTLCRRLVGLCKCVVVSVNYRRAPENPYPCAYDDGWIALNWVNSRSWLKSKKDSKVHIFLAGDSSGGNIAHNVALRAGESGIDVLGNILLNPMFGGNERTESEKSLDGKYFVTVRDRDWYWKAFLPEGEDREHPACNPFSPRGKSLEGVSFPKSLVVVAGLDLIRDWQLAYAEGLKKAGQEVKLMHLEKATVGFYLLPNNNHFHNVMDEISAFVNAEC
Description: Panels A) to C) depict the results of Scatchard plot analyses for the GA binding of AtGID1. Results for AtGID1a (A), AtGID1b (B), and AtGID1c (C) are shown. The Kd values for 16,17-dihydro-GA4 was determined by adding various concentrations of GA to the assay mixture. Standard deviation (SD) was determined from these three independent measurements. The insets show time-course characteristics for the GA binding of AtGID1 and replacement (arrow) using an excess amount of non-labeled GA4 (0.125 mM). Panels D) to F) depict the GA binding activities of AtGID1 under different pH conditions. Results for AtGID1a (D), AtGID1b (E), and AtGID1c (F) are shown. The non-specific binding activity (UB) was determined by adding 0.125 mM GA4 to the assay solution, and this was subtracted from the total binding activity (B) to determine the specific binding activity (B-UB).
Specifically, the coding region of the AtGID1 gene was amplified by PCR using specific primers designed based on the full-length cDNA sequence of the AtGID1 gene and having appropriate restriction sites at each end. […]
The kinetics, ligand selectivity, and pH dependence of GA binding for the three AtGID1s identified as described above were examined using the tritiated GA4 derivative 16,17-dihydro-GA4. […] Furthermore, the kinetics of GA binding of each AtGID1 was analyzed under equilibrium conditions of GA at various concentrations.

AtGID1b = target: T2, AtGID1b (Arabidopsis thaliana, UniProt Q9LYC1); experiment: Competitive ability of GA in AtGID1-GA binding (AtGID1b)
T2 construct: made in house; host or cells: E. coli
T2 sequence (Q9LYC1 1-358): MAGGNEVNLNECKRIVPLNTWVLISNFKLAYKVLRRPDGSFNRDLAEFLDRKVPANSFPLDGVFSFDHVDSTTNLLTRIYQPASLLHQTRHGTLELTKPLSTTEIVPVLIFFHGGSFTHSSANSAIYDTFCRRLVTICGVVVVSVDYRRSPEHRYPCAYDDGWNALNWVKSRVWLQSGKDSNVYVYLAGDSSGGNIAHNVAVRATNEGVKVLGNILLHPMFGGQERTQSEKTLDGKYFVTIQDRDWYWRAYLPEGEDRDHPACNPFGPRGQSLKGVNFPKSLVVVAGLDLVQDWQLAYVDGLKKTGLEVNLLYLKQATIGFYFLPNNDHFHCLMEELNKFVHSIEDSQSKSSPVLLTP
Description: In the gibberellin-binding assay, [1,2,16,17-^3H4]16,17-dihydro-GA4 was used as a labeled GA4. In vitro GA-binding assays were carried out using previous methods with some modifications (Nakajima, M. et al., Biochem. Biophys. Res. Comm. 241, 782-786 (1997)). The purified recombinant GID1 protein (400 pmol) was dissolved in 300 μl of binding buffer [20 mM Tris-HCl (pH 7.6), 5 mM 2-mercaptoethanol, and 0.1 M NaCl], and incubated with 100 μl of ^3H4-16,17-dihydroGA4 (6 pmol) for two hours at 25° C., either in the absence of non-labeled GA4 (total binding) or in the presence of 833-fold excess non-labeled GA4 (total non-specific binding). Then, 0.1 ml of the reaction mixture was loaded onto a NAP-5 column (Amersham Biosciences, Piscataway, N.J.). The eluate of the binding buffer (0.6 ml) was discarded, the subsequent eluate (0.2 ml) was collected, and the radioactivity was measured. The specific binding activity, reflecting the number of displaceable GA binding sites, was calculated by subtracting the amount of nonspecific binding from the amount of total binding. The same as above can also be carried out for other GAs.
Specifically, the coding region of the AtGID1 gene was amplified by PCR using specific primers designed based on the full-length cDNA sequence of the AtGID1 gene and having appropriate restriction sites at each end. After confirmation by sequence analysis, each cDNA fragment was ligated into pET32a vector (Novagen/Merck Biosciences, Madison, Wis., USA) or pGEX-4T-2 vector (Amersham Biosciences, Piscataway, N.J., USA; currently, a part of GE Healthcare). The production of recombinant proteins was confirmed by SDS-PAGE; vector cassettes were used as negative controls. GA binding assays were carried out similarly as described above using [1,2,16,17-^3H4]-16,17-dihydro-GA4 (4.55 TBq/mmol), which was custom-made by DuPont/NEN (Boston, Mass., USA). Non-labeled GA4 (1.25 mM) was used to measure non-specific binding. Saturation experiments for the kinetic analysis were carried out using ten concentrations of 16,17-dihydro-GA4 within the range of 25 to 1,500 nM. Competition assays were performed using [1,2,16,17-^3H4]-16,17-dihydro-GA4 at 15 nM and five concentrations of the non-labeled competitor. Recombinant RGA and GAI proteins were prepared using pET32a by a previously described method.
The ligand selectivity of each AtGID1 was examined by observing the competitive inhibition, by the addition of GA to the assay mixtures, of the binding between the recombinant proteins and tritiated 16,17-dihydro-GA4 (Table 2). The ligand selectivity was evaluated using the concentration of GA that inhibits 50% of the tracer (15 nM) binding (IC50 value).

CC1C[C@]23C[C@H]1CCC2[C@]12CC[C@H](O)[C@](C)(C(=O)O1)[C@H]2[C@@H]3C(=O)O (stereo partly drawn) [H2-GA4, 16,17-dihydro-GA4]
Kd (AtGID1a): 2 µM | relative value, taking the value for GA4 as 100 (AtGID1b): (8) % | IC50 (AtGID1b; tracer 15 nM, mean of at least two measurements): 0.4 µM
